{"source": "PubChem BioAssay (NCI)", "test_in_all_cases": "inhibition of tumour cell growth, NCI panel, 48 h", "key": {"786-0 renal": {"system": "786-0 renal"}, "COLO 205 colon": {"system": "COLO 205 colon"}, "DLD-1 colon": {"system": "DLD-1 colon"}, "HCT-116 colon": {"system": "HCT-116 colon"}, "HOP-62 NSCLC": {"system": "HOP-62 NSCLC"}, "HT29 colon": {"system": "HT29 colon"}, "MALME-3M melanoma": {"system": "MALME-3M melanoma"}, "NCI-H460 lung": {"system": "NCI-H460 lung"}, "SF-268 CNS": {"system": "SF-268 CNS"}, "SF-295 CNS": {"system": "SF-295 CNS"}, "SK-MEL-2 melanoma": {"system": "SK-MEL-2 melanoma"}, "SNB-75 CNS": {"system": "SNB-75 CNS"}, "SR leukemia": {"system": "SR leukemia"}, "TK-10 renal": {"system": "TK-10 renal"}, "UACC-257 melanoma": {"system": "UACC-257 melanoma"}, "LOX IMVI melanoma": {"system": "LOX IMVI melanoma"}, "RXF 393 renal": {"system": "RXF 393 renal"}, "SK-OV-3 ovarian": {"system": "SK-OV-3 ovarian"}, "A498 renal": {"system": "A498 renal"}, "MCF7 breast": {"system": "MCF7 breast"}}, "note": "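Tested at 5 concentrations; 48 h exposure; 96-well plates; endpoints linearly interpolated, else capped at highest concentration. TGI: total growth inhibition.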", "data": [{"molecule": "NCCCOc1ccc([N+](=O)[O-])cc1Cl", "values": [{"measurement": "TGI", "setting": "786-0 renal", "result": "> 100", "unit": "µM"}, {"measurement": "TGI", "setting": "COLO 205 colon", "result": "> 100", "unit": "µM"}, {"measurement": "TGI", "setting": "DLD-1 colon", "result": "> 100", "unit": "µM"}, {"measurement": "TGI", "setting": "HCT-116 colon", "result": "> 100", "unit": "µM"}, {"measurement": "TGI", "setting": "HOP-62 NSCLC", "result": "> 100", "unit": "µM"}, {"measurement": "TGI", "setting": "HT29 colon", "result": "> 100", "unit": "µM"}, {"measurement": "TGI", "setting": "MALME-3M melanoma", "result": "> 100", "unit": "µM"}, {"measurement": "TGI", "setting": "NCI-H460 lung", "result": "> 100", "unit": "µM"}, {"measurement": "TGI", "setting": "SF-268 CNS", "result": "> 100", "unit": "µM"}, {"measurement": "TGI", "setting": "SF-295 CNS", "result": "> 100", "unit": "µM"}, {"measurement": "TGI", "setting": "SK-MEL-2 melanoma", "result": "> 100", "unit": "µM"}, {"measurement": "TGI", "setting": "SNB-75 CNS", "result": "> 100", "unit": "µM"}, {"measurement": "TGI", "setting": "SR leukemia", "result": "> 100", "unit": "µM"}, {"measurement": "TGI", "setting": "TK-10 renal", "result": "> 100", "unit": "µM"}, {"measurement": "TGI", "setting": "UACC-257 melanoma", "result": "> 100", "unit": "µM"}]}, {"molecule": "[N-]=[N+]=NC(CCl)c1cn([C@H]2C[C@H](O)[C@@H](CO)O2)c(=O)[nH]c1=O", "note": "(stereo partly specified)", "values": [{"measurement": "TGI", "setting": "786-0 renal", "result": "> 100", "unit": "µM"}, {"measurement": "TGI", "setting": "COLO 205 colon", "result": "> 100", "unit": "µM"}, {"measurement": "TGI", "setting": "DLD-1 colon", "result": "> 100", "unit": "µM"}, {"measurement": "TGI", "setting": "HCT-116 colon", "result": "> 100", "unit": "µM"}, {"measurement": "TGI", "setting": "HOP-62 NSCLC", "result": "> 100", "unit": "µM"}, {"measurement": "TGI", "setting": "HT29 colon", "result": "> 100", "unit": "µM"}, {"measurement": "TGI", "setting": "LOX IMVI melanoma", "result": "> 100", "unit": "µM"}, {"measurement": "TGI", "setting": "MALME-3M melanoma", "result": "> 100", "unit": "µM"}, {"measurement": "TGI", "setting": "NCI-H460 lung", "result": "> 100", "unit": "µM"}, {"measurement": "TGI", "setting": "RXF 393 renal", "result": "> 100", "unit": "µM"}, {"measurement": "TGI", "setting": "SF-295 CNS", "result": "> 100", "unit": "µM"}, {"measurement": "TGI", "setting": "SK-MEL-2 melanoma", "result": "> 100", "unit": "µM"}, {"measurement": "TGI", "setting": "SK-OV-3 ovarian", "result": "> 100", "unit": "µM"}, {"measurement": "TGI", "setting": "SNB-75 CNS", "result": "> 100", "unit": "µM"}, {"measurement": "TGI", "setting": "SR leukemia", "result": "> 100", "unit": "µM"}, {"measurement": "TGI", "setting": "TK-10 renal", "result": "> 100", "unit": "µM"}]}, {"molecule": "O=c1cc(-c2ccccc2)c2ccccc2[nH]1", "values": [{"measurement": "TGI", "setting": "786-0 renal", "result": "> 100", "unit": "µM"}, {"measurement": "TGI", "setting": "COLO 205 colon", "result": "> 100", "unit": "µM"}, {"measurement": "TGI", "setting": "DLD-1 colon", "result": "> 100", "unit": "µM"}, {"measurement": "TGI", "setting": "HCT-116 colon", "result": "> 100", "unit": "µM"}, {"measurement": "TGI", "setting": "HOP-62 NSCLC", "result": "> 100", "unit": "µM"}, {"measurement": "TGI", "setting": "HT29 colon", "result": "> 100", "unit": "µM"}, {"measurement": "TGI", "setting": "LOX IMVI melanoma", "result": "> 100", "unit": "µM"}, {"measurement": "TGI", "setting": "MALME-3M melanoma", "result": 90.9, "unit": "µM"}, {"measurement": "TGI", "setting": "NCI-H460 lung", "result": "> 100", "unit": "µM"}, {"measurement": "TGI", "setting": "RXF 393 renal", "result": "> 100", "unit": "µM"}, {"measurement": "TGI", "setting": "SF-268 CNS", "result": "> 100", "unit": "µM"}, {"measurement": "TGI", "setting": "SF-295 CNS", "result": "> 100", "unit": "µM"}, {"measurement": "TGI", "setting": "SK-MEL-2 melanoma", "result": "> 100", "unit": "µM"}, {"measurement": "TGI", "setting": "SK-OV-3 ovarian", "result": 84.8, "unit": "µM"}, {"measurement": "TGI", "setting": "SNB-75 CNS", "result": 46.5, "unit": "µM"}, {"measurement": "TGI", "setting": "SR leukemia", "result": "> 100", "unit": "µM"}, {"measurement": "TGI", "setting": "TK-10 renal", "result": "> 100", "unit": "µM"}, {"measurement": "TGI", "setting": "UACC-257 melanoma", "result": "> 100", "unit": "µM"}]}, {"molecule": "CN(Cc1ccccc1)C(=NC#N)N(Cc1ccccc1)Cc1ccccc1", "values": [{"measurement": "TGI", "setting": "786-0 renal", "result": 97.6, "unit": "µM"}, {"measurement": "TGI", "setting": "A498 renal", "result": "> 100", "unit": "µM"}, {"measurement": "TGI", "setting": "COLO 205 colon", "result": 36.2, "unit": "µM"}, {"measurement": "TGI", "setting": "DLD-1 colon", "result": "> 100", "unit": "µM"}, {"measurement": "TGI", "setting": "HCT-116 colon", "result": "> 55.3", "unit": "µM"}, {"measurement": "TGI", "setting": "HOP-62 NSCLC", "result": 84.8, "unit": "µM"}, {"measurement": "TGI", "setting": "HT29 colon", "result": 36.3, "unit": "µM"}, {"measurement": "TGI", "setting": "LOX IMVI melanoma", "result": 35, "unit": "µM"}, {"measurement": "TGI", "setting": "MALME-3M melanoma", "result": 67.1, "unit": "µM"}, {"measurement": "TGI", "setting": "MCF7 breast", "result": 93.2, "unit": "µM"}, {"measurement": "TGI", "setting": "NCI-H460 lung", "result": "> 90.1", "unit": "µM"}, {"measurement": "TGI", "setting": "RXF 393 renal", "result": 95.9, "unit": "µM"}, {"measurement": "TGI", "setting": "SF-268 CNS", "result": "> 100", "unit": "µM"}, {"measurement": "TGI", "setting": "SF-295 CNS", "result": 47.4, "unit": "µM"}, {"measurement": "TGI", "setting": "SK-MEL-2 melanoma", "result": 40.7, "unit": "µM"}, {"measurement": "TGI", "setting": "SK-OV-3 ovarian", "result": "> 90.3", "unit": "µM"}, {"measurement": "TGI", "setting": "SNB-75 CNS", "result": 82.2, "unit": "µM"}, {"measurement": "TGI", "setting": "SR leukemia", "result": "> 100", "unit": "µM"}, {"measurement": "TGI", "setting": "TK-10 renal", "result": "> 100", "unit": "µM"}, {"measurement": "TGI", "setting": "UACC-257 melanoma", "result": 54.4, "unit": "µM"}]}, {"molecule": "Cc1ccc(NCC(=O)N2CC(=O)Nc3ccccc32)c(C)c1", "values": [{"measurement": "TGI", "setting": "786-0 renal", "result": "> 100", "unit": "µM"}, {"measurement": "TGI", "setting": "COLO 205 colon", "result": "> 100", "unit": "µM"}, {"measurement": "TGI", "setting": "DLD-1 colon", "result": "> 100", "unit": "µM"}, {"measurement": "TGI", "setting": "HCT-116 colon", "result": "> 100", "unit": "µM"}, {"measurement": "TGI", "setting": "HOP-62 NSCLC", "result": "> 100", "unit": "µM"}, {"measurement": "TGI", "setting": "HT29 colon", "result": "> 100", "unit": "µM"}, {"measurement": "TGI", "setting": "LOX IMVI melanoma", "result": "> 100", "unit": "µM"}, {"measurement": "TGI", "setting": "MALME-3M melanoma", "result": "> 100", "unit": "µM"}, {"measurement": "TGI", "setting": "NCI-H460 lung", "result": "> 100", "unit": "µM"}, {"measurement": "TGI", "setting": "RXF 393 renal", "result": "> 100", "unit": "µM"}, {"measurement": "TGI", "setting": "SF-268 CNS", "result": "> 100", "unit": "µM"}, {"measurement": "TGI", "setting": "SF-295 CNS", "result": "> 100", "unit": "µM"}, {"measurement": "TGI", "setting": "SK-MEL-2 melanoma", "result": "> 100", "unit": "µM"}, {"measurement": "TGI", "setting": "SK-OV-3 ovarian", "result": "> 100", "unit": "µM"}, {"measurement": "TGI", "setting": "SNB-75 CNS", "result": "> 100", "unit": "µM"}, {"measurement": "TGI", "setting": "SR leukemia", "result": "> 100", "unit": "µM"}, {"measurement": "TGI", "setting": "TK-10 renal", "result": "> 100", "unit": "µM"}, {"measurement": "TGI", "setting": "UACC-257 melanoma", "result": "> 100", "unit": "µM"}]}, {"molecule": "Cc1c2ccncc2c(C)c2c1[nH]c1ccc(OC(C)C)cc12", "values": [{"measurement": "TGI", "setting": "786-0 renal", "result": 2.44, "unit": "µM"}, {"measurement": "TGI", "setting": "A498 renal", "result": 2.78, "unit": "µM"}, {"measurement": "TGI", "setting": "COLO 205 colon", "result": 2.81, "unit": "µM"}, {"measurement": "TGI", "setting": "DLD-1 colon", "result": 3.13, "unit": "µM"}, {"measurement": "TGI", "setting": "HCT-116 colon", "result": 2.04, "unit": "µM"}, {"measurement": "TGI", "setting": "HOP-62 NSCLC", "result": 2.66, "unit": "µM"}, {"measurement": "TGI", "setting": "HT29 colon", "result": 2.64, "unit": "µM"}, {"measurement": "TGI", "setting": "LOX IMVI melanoma", "result": 2.51, "unit": "µM"}, {"measurement": "TGI", "setting": "MALME-3M melanoma", "result": 3.16, "unit": "µM"}, {"measurement": "TGI", "setting": "NCI-H460 lung", "result": 2.25, "unit": "µM"}, {"measurement": "TGI", "setting": "RXF 393 renal", "result": 2.76, "unit": "µM"}, {"measurement": "TGI", "setting": "SF-268 CNS", "result": 3.07, "unit": "µM"}, {"measurement": "TGI", "setting": "SF-295 CNS", "result": 2.73, "unit": "µM"}, {"measurement": "TGI", "setting": "SK-MEL-2 melanoma", "result": 3.22, "unit": "µM"}, {"measurement": "TGI", "setting": "SK-OV-3 ovarian", "result": 2.77, "unit": "µM"}, {"measurement": "TGI", "setting": "SNB-75 CNS", "result": 3.36, "unit": "µM"}, {"measurement": "TGI", "setting": "SR leukemia", "result": 3.73, "unit": "µM"}, {"measurement": "TGI", "setting": "TK-10 renal", "result": 3.37, "unit": "µM"}, {"measurement": "TGI", "setting": "UACC-257 melanoma", "result": 3.3, "unit": "µM"}]}]}
